Test results as given in patent US20230085307A1, “PYRIDAZINONE COMPOUND AND HERBICIDE” (NISSAN CHEMICAL CORPORATION, priority 2019, published 2023).

Key:
[1] = test system: Italian ryegrass; assay: Test Example 5: herbicidal effect by foliage application, plastic box (Table 20, symbol K); assay type: in vivo, Italian ryegrass (Lolium multiflorum); conditions: amount of applied herbicide 320 g/ha; foliage application after 14-day growth; evaluated three weeks after application
Outline: (§1)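 Foliar spray test: emulsion formulation diluted in water to a set application rate, sprayed onto 14-day-old plants raised in diluvial soil at 25° C to 30° C under glass. Both herbicidal effect and crop effect rated visually three weeks later.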

[2] = test system: southern crabgrass; assay: Test Example 5: herbicidal effect by foliage application, plastic box (Table 20, symbol F); assay type: in vivo, southern crabgrass (Digitaria ciliaris); conditions: amount of applied herbicide 320 g/ha; foliage application after 14-day growth; evaluated three weeks after application
Outline: as §1

[3] = test system: persian speedwell; assay: Test Example 5: herbicidal effect by foliage application, plastic box (Table 20, symbol R); assay type: in vivo, Persian speedwell (Veronica persica); conditions: amount of applied herbicide 320 g/ha; foliage application after 14-day growth; evaluated three weeks after application
Outline: as §1

[4] = test system: blackgrass; assay: Test Example 4: herbicidal effect by soil treatment (Table 19, symbol J); assay type: in vivo, blackgrass (Alopecurus myosuroides); conditions: amount of applied herbicide 320 g/ha
Outline: (§2)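 Step 1: sow seeds in sterilized diluvial soil, cover ~1.5 cm. Step 2: spray diluted emulsion onto soil surface at predetermined rate. Step 3: greenhouse, 25–30° C, three weeks. Step 4: grade effect on each plant by earlier criteria.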

[5] = test system: persian speedwell; assay: Test Example 4: herbicidal effect by soil treatment (Table 19, symbol R); assay type: in vivo, Persian speedwell (Veronica persica); conditions: amount of applied herbicide 320 g/ha
Outline: as §2

[6] = test system: windgrass; assay: Test Example 5: herbicidal effect by foliage application, plastic box (Table 20, symbol L); assay type: in vivo, windgrass (Apera spica-venti); conditions: amount of applied herbicide 320 g/ha; foliage application after 14-day growth; evaluated three weeks after application
Outline: as §1

[7] = test system: barnyard grass; assay: Test Example 4: herbicidal effect by soil treatment (Table 19, symbol H); assay type: in vivo, barnyard grass (Echinochloa crus-galli); conditions: amount of applied herbicide 320 g/ha
Outline: as §2

[8] = test system: lambsquarters; assay: Test Example 5: herbicidal effect by foliage application, plastic box (Table 20, symbol O); assay type: in vivo, lambsquarters (Chenopodium album); conditions: amount of applied herbicide 320 g/ha; foliage application after 14-day growth; evaluated three weeks after application
Outline: as §1

[9] = test system: green foxtail; assay: Test Example 4: herbicidal effect by soil treatment (Table 19, symbol G); assay type: in vivo, green foxtail (Setaria viridis); conditions: amount of applied herbicide 320 g/ha
Outline: as §2

[10] = test system: barnyard grass; assay: Test Example 5: herbicidal effect by foliage application, plastic box (Table 20, symbol H); assay type: in vivo, barnyard grass (Echinochloa crus-galli); conditions: amount of applied herbicide 320 g/ha; foliage application after 14-day growth; evaluated three weeks after application
Outline: as §1

[11] = test system: wild oat; assay: Test Example 5: herbicidal effect by foliage application, plastic box (Table 20, symbol I); assay type: in vivo, wild oat (Avena fatua); conditions: amount of applied herbicide 320 g/ha; foliage application after 14-day growth; evaluated three weeks after application
Outline: as §1

[12] = test system: chickweed; assay: Test Example 5: herbicidal effect by foliage application, plastic box (Table 20, symbol P); assay type: in vivo, common chickweed (Stellaria media); conditions: amount of applied herbicide 320 g/ha; foliage application after 14-day growth; evaluated three weeks after application
Outline: as §1

[13] = test system: lambsquarters; assay: Test Example 4: herbicidal effect by soil treatment (Table 19, symbol O); assay type: in vivo, lambsquarters (Chenopodium album); conditions: amount of applied herbicide 320 g/ha
Outline: as §2

[14] = test system: chickweed; assay: Test Example 4: herbicidal effect by soil treatment (Table 19, symbol P); assay type: in vivo, common chickweed (Stellaria media); conditions: amount of applied herbicide 320 g/ha
Outline: as §2

[15] = test system: blackgrass; assay: Test Example 5: herbicidal effect by foliage application, plastic box (Table 20, symbol J); assay type: in vivo, blackgrass (Alopecurus myosuroides); conditions: amount of applied herbicide 320 g/ha; foliage application after 14-day growth; evaluated three weeks after application
Outline: as §1

[16] = test system: redroot pigweed; assay: Test Example 4: herbicidal effect by soil treatment (Table 19, symbol N); assay type: in vivo, redroot pigweed (Amaranthus retroflexus); conditions: amount of applied herbicide 320 g/ha
Outline: as §2

[17] = test system: Chinese sprangletop; assay: Test Example 3: herbicidal effect by foliage application, Wagner pot (Table 18, symbol D); assay type: in vivo, chinese sprangletop (Leptochloa chinensis); conditions: 320 g/ha
Outline: (§3)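 Plants were sown in alluvial soil held under 0.1–0.5 cm standing water and grown 14 days in a greenhouse at 25–30 °C. An emulsifiable formulation, water-diluted to the set dose, was then sprayed onto the foliage, and effects were scored three weeks later using previously defined criteria.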

[18] = test system: wild oat; assay: Test Example 4: herbicidal effect by soil treatment (Table 19, symbol I); assay type: in vivo, wild oat (Avena fatua); conditions: amount of applied herbicide 320 g/ha
Outline: as §2

[19] = test system: green foxtail; assay: Test Example 5: herbicidal effect by foliage application, plastic box (Table 20, symbol G); assay type: in vivo, green foxtail (Setaria viridis); conditions: amount of applied herbicide 320 g/ha; foliage application after 14-day growth; evaluated three weeks after application
Outline: as §1

[20] = test system: barnyard grass; assay: Test Example 3: herbicidal effect by foliage application, Wagner pot (Table 18, symbol H); assay type: in vivo, barnyard grass (Echinochloa crus-galli); conditions: 320 g/ha
Outline: as §3

[21] = test system: rice flat sedge; assay: Test Example 3: herbicidal effect by foliage application, Wagner pot (Table 18, symbol E); assay type: in vivo, rice flat sedge (Cyperus iria); conditions: 320 g/ha
Outline: as §3

[22] = test system: Italian ryegrass; assay: Test Example 4: herbicidal effect by soil treatment (Table 19, symbol K); assay type: in vivo, Italian ryegrass (Lolium multiflorum); conditions: amount of applied herbicide 320 g/ha
Outline: as §2

[23] = test system: velvetleaf; assay: Test Example 4: herbicidal effect by soil treatment (Table 19, symbol M); assay type: in vivo, velvetleaf (Abutilon theophrasti); conditions: amount of applied herbicide 320 g/ha
Outline: as §2

[24] = test system: redroot pigweed; assay: Test Example 5: herbicidal effect by foliage application, plastic box (Table 20, symbol N); assay type: in vivo, redroot pigweed (Amaranthus retroflexus); conditions: amount of applied herbicide 320 g/ha; foliage application after 14-day growth; evaluated three weeks after application
Outline: as §1

[25] = test system: velvetleaf; assay: Test Example 5: herbicidal effect by foliage application, plastic box (Table 20, symbol M); assay type: in vivo, velvetleaf (Abutilon theophrasti); conditions: amount of applied herbicide 320 g/ha; foliage application after 14-day growth; evaluated three weeks after application
Outline: as §1

[26] = test system: windgrass; assay: Test Example 4: herbicidal effect by soil treatment (Table 19, symbol L); assay type: in vivo, windgrass (Apera spica-venti); conditions: amount of applied herbicide 320 g/ha
Outline: as §2

[27] = test system: southern crabgrass; assay: Test Example 4: herbicidal effect by soil treatment (Table 19, symbol F); assay type: in vivo, southern crabgrass (Digitaria ciliaris); conditions: amount of applied herbicide 320 g/ha
Outline: as §2

Structure (SMILES)	Herbicidal effect by foliage application, K: Italian ryegrass [1]	Herbicidal effect by foliage application, F: southern crabgrass [2]	Herbicidal effect by foliage application, R: persian speedwell [3]	J: blackgrass, herbicidal effect grade [4]	R: persian speedwell, herbicidal effect grade [5]	Herbicidal effect by foliage application, L: windgrass [6]	H: barnyard grass, herbicidal effect grade [7]	Herbicidal effect by foliage application, O: lambsquarters [8]	G: green foxtail, herbicidal effect grade [9]	Herbicidal effect by foliage application, H: barnyard grass [10]	Herbicidal effect by foliage application, I: wild oat [11]	Herbicidal effect by foliage application, P: chickweed [12]	O: lambsquarters, herbicidal effect grade [13]	P: chickweed, herbicidal effect grade [14]	Herbicidal effect by foliage application, J: blackgrass [15]	N: redroot pigweed, herbicidal effect grade [16]	herbicidal effect on Chinese sprangletop (D) [17]	I: wild oat, herbicidal effect grade [18]	Herbicidal effect by foliage application, G: green foxtail [19]	herbicidal effect on barnyard grass (H) [20]	other results
CCCC(=O)Oc1c(C)nn(C)c(=O)c1-c1c(-c2ccccc2OC)sc2cc(Cl)c(Cl)cc12 [5-042]	0 (Herbicidal rate of 5% or less (almost no effect))	0 (Herbicidal rate of 5% or less (almost no effect))	4 (Herbicidal rate of 70% or more and less than 90%)	0 (Herbicidal rate of 5% or less (almost no effect))	0 (Herbicidal rate of 5% or less (almost no effect))	0 (Herbicidal rate of 5% or less (almost no effect))	0 (Herbicidal rate of 5% or less (almost no effect))	5 (Herbicidal rate of 90% or more (almost completely withered))	0 (Herbicidal rate of 5% or less (almost no effect))	4 (Herbicidal rate of 70% or more and less than 90%)	0 (Herbicidal rate of 5% or less (almost no effect))	4 (Herbicidal rate of 70% or more and less than 90%)	1 (Herbicidal rate of 5% or more and less than 20%)	3 (Herbicidal rate of 40% or more and less than 70%)	0 (Herbicidal rate of 5% or less (almost no effect))	3 (Herbicidal rate of 40% or more and less than 70%)	2 (Herbicidal rate of 20% or more and less than 40%)	0 (Herbicidal rate of 5% or less (almost no effect))	4 (Herbicidal rate of 70% or more and less than 90%)	5 (Herbicidal rate of 90% or more (almost completely withered))	herbicidal effect on rice flat sedge (E) [21]: 4 (Herbicidal rate of 70% or more and less than 90%); K: Italian ryegrass, herbicidal effect grade [22]: 0 (Herbicidal rate of 5% or less (almost no effect)); M: velvetleaf, herbicidal effect grade [23]: 0 (Herbicidal rate of 5% or less (almost no effect)); Herbicidal effect by foliage application, N: redroot pigweed [24]: 4 (Herbicidal rate of 70% or more and less than 90%); Herbicidal effect by foliage application, M: velvetleaf [25]: 5 (Herbicidal rate of 90% or more (almost completely withered)); L: windgrass, herbicidal effect grade [26]: 0 (Herbicidal rate of 5% or less (almost no effect)); F: southern crabgrass, herbicidal effect grade [27]: 0 (Herbicidal rate of 5% or less (almost no effect))
COc1cc(F)ccc1-c1sc2cc(Cl)c(Cl)cc2c1-c1c(O)c(C)nn(C)c1=O [5-051]	0 (Herbicidal rate of 5% or less (almost no effect))	2 (Herbicidal rate of 20% or more and less than 40%)	3 (Herbicidal rate of 40% or more and less than 70%)	0 (Herbicidal rate of 5% or less (almost no effect))	0 (Herbicidal rate of 5% or less (almost no effect))	4 (Herbicidal rate of 70% or more and less than 90%)	0 (Herbicidal rate of 5% or less (almost no effect))	3 (Herbicidal rate of 40% or more and less than 70%)	2 (Herbicidal rate of 20% or more and less than 40%)	3 (Herbicidal rate of 40% or more and less than 70%)	0 (Herbicidal rate of 5% or less (almost no effect))	5 (Herbicidal rate of 90% or more (almost completely withered))	4 (Herbicidal rate of 70% or more and less than 90%)	1 (Herbicidal rate of 5% or more and less than 20%)	5 (Herbicidal rate of 90% or more (almost completely withered))	1 (Herbicidal rate of 5% or more and less than 20%)	3 (Herbicidal rate of 40% or more and less than 70%)	0 (Herbicidal rate of 5% or less (almost no effect))	4 (Herbicidal rate of 70% or more and less than 90%)	4 (Herbicidal rate of 70% or more and less than 90%)	herbicidal effect on rice flat sedge (E) [21]: 3 (Herbicidal rate of 40% or more and less than 70%); K: Italian ryegrass, herbicidal effect grade [22]: 0 (Herbicidal rate of 5% or less (almost no effect)); M: velvetleaf, herbicidal effect grade [23]: 0 (Herbicidal rate of 5% or less (almost no effect)); Herbicidal effect by foliage application, N: redroot pigweed [24]: 3 (Herbicidal rate of 40% or more and less than 70%); Herbicidal effect by foliage application, M: velvetleaf [25]: 5 (Herbicidal rate of 90% or more (almost completely withered)); L: windgrass, herbicidal effect grade [26]: 0 (Herbicidal rate of 5% or less (almost no effect)); F: southern crabgrass, herbicidal effect grade [27]: 0 (Herbicidal rate of 5% or less (almost no effect))
